Test results: patent US11787810B2, “Diacylglyceride O-acyltransferase 2 inhibitors” (Merck Sharp & Dohme Corp., priority 2020, dated 2023)

target: human DGAT2 (hDGAT2) (Homo sapiens (Human), UniProt Q96PD7); test: DGAT2 enzymatic activity assay (13C18-triolein formation, LC/MS/MS); assay type: biochemical; settings: hDGAT2 Sf-9 membrane prep, 25 μM diolein, 5 μM 13C oleoyl-CoA; read-out: Human DGAT2 IC50
Method: Sf-9 insect cells were maintained in Grace's insect cell culture medium with 10% heated-inactivated fetal bovine serum, 1% Pluronic F-68 and 0.14 μg/ml Kanamycine sulfate at 27° C. in a shaker incubator. After infection with untagged baculovirus expressing human DGAT2 (hDGAT2) at multiplicity of infection (MOI) 3 for 48 hours, cells were harvested. Cell pellets were suspended in buffer containing 10 mM Tris-HCl pH 7.5, 1 mM EDTA, 250 mM sucrose and Complete Protease Inhibitor Cocktail (Sigma Aldrich), and sonicated on ice. Cell debris were removed by centrifugation at 2000×g for 15 minutes. Membrane fractions were isolated by ultracentrifugation (100,000×g), resuspended in the same buffer, and frozen (−80° C.) for later use. The protein concentration was determined with the Pierce™ BCA Protein Assay Kit (Thermo Fisher Scientific). Expression of protein levels was analyzed by immunoblotting with rabbit anti-DGAT2 antibody (Abcam, ab102831) and donkey anti-rabbit IgG H&L Alexa Fluor® 647 (Abcam, ab150075) followed by detection using Typhoon FLA9000 (GE Healthcare).
LC/MS/MS analyses were performed using Thermal Fisher's LX4-TSQ Vantage system. This system consists of an Agilent binary high-performance liquid chromatography (HPLC) pumps and a TSQ Vantage triple quadrupole MS/MS instrument. For each sample, 2 μL samples from the top organic layer of in-plate liquid-liquid extraction were injected onto a Thermo Betabasic C4 column (2.1 mm×20 mm, 5 μm particle size). The samples were then eluted using the following conditions; mobile phase: Isopropanol:acetonitrile/10 mM ammonium formate=50/35/15 (v/v/v), flow rate: 0.8 mL/min, temperature: 25° C. Data was acquired in positive mode using a heated electrospray ionization (HESI) interface. The operational parameters for the TSQ Vantage MS/MS instrument were a spray voltage of 3000 V, capillary temperature of 280° C., vaporizer temperature 400° C., sheath gas 45 arbitrary unit, Aux gas 10 arbitrary units, S-lens 165 and collision gas 1.0 mTorr. […] (SRM) chromatograms of ^13C18-triolein (Q1: 920.8>Q3:621.3) and internal standard ^13C21-triolein (Q1: 923.8>Q3:617.3) were collected for 33 sec. The peak area was integrated by Xcalibur Quan software. The ratio between the ^13C18triolein generated in the reaction and spiked in internal standard ^13C21-triolein was used to generate percentage inhibition and IC50 values. Compound percentage inhibition was calculated by the following formula: Inhibition %=1-[(compound response−low control)/(high control−low control)]×100%. Potent compounds were titrated and IC50 were calculated by 4 parameter sigmoidal curve fitting formula.
DGAT2 activity was determined by measuring the amount of enzymatic product ^13C18-triolein (^13C-1,2,3-Tri(cis-9-octadecenoyl)glycerol) using the membrane prep mentioned above. The assay was carried out in ABgene 384-well assay plates in a final volume of 25 μL at rt. The assay mixture contained the following: assay buffer (100 mM Tris·Cl, pH 7.0, 20 mM MgCl2, 5% ethanol), 25 μM of diolein, 5 μM of ^13C oleoyl-CoA and 8 ng/μL of DGAT2 membrane.

Chain of human DGAT2 (hDGAT2) (Q96PD7 whole entry): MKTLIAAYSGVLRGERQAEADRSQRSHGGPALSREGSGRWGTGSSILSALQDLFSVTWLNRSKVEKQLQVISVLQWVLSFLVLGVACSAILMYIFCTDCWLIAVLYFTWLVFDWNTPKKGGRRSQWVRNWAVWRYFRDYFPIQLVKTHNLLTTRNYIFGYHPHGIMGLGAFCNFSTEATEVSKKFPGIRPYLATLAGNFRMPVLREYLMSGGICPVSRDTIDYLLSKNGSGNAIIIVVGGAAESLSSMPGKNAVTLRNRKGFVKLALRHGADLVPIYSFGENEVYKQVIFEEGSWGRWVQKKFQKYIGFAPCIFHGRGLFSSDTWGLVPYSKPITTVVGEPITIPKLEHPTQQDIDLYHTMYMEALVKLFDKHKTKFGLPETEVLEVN

SMILES	IC50
CC(C)n1nc(-c2cccc(OC(F)F)c2)c2ncc(C(=O)NC3(C(C)O)CCOC3)cc21 (single isomer, unassigned) [Example 50b, 3-(3-(difluoromethoxy)phenyl)-N-(3-(1-hydroxyethyl)tetrahydrofuran-3-yl)-1-isopropyl-1H-pyrazolo[4,3-b]pyridine-6-carboxamide]	31 nM
CC(O)C(C)NC(=O)c1cnc2c(-c3cccc(OC(F)F)c3)nn(C(C)C)c2c1 (single isomer, unassigned) [Example 45c, 3-(3-(difluoromethoxy)phenyl)-N-(3-hydroxybutan-2-yl)-1-isopropyl-1H-pyrazolo[4,3-b]pyridine-6-carboxamide]	498 nM
CC1(NC(=O)c2cnc3c(-c4cccc(OC(F)F)c4)nn(C4CCOC(C(F)(F)F)C4)c3c2)CS(=O)(=O)C1 (single isomer, unassigned) [Example 76b, 3-(3-(difluoromethoxy)phenyl)-N-(3-methyl-1,1-dioxidothietan-3-yl)-1-(2-(trifluoromethyl)tetrahydro-2H-pyran-4-yl)-1H-pyrazolo[4,3-b]pyridine-6-carboxamide]	211 nM
CC(C)n1nc(-c2cccc(OC(F)F)c2)c2ncc(C(=O)NC(C)(C)CO)cc21 [Example 42, 3-(3-(difluoromethoxy)phenyl)-N-(1-hydroxy-2-methylpropan-2-yl)-1-isopropyl-1H-pyrazolo[4,3-b]pyridine-6-carboxamide]	38 nM
CC(C)n1nc(-c2cccc(OC(F)F)c2)c2ncc(C(=O)NC3(C)CCOC3)cc21 (single isomer, unassigned) [Example 48b, 3-(3-(difluoromethoxy)phenyl)-1-isopropyl-N-(3-methyltetrahydrofuran-3-yl)-1H-pyrazolo[4,3-b]pyridine-6-carboxamide]	16 nM
CC(C)n1nc(-c2cccc(OC(F)F)c2)c2ncc(C(=O)NC3(C(C)O)CCOC3)cc21 (single isomer, unassigned) [Example 50a, 3-(3-(difluoromethoxy)phenyl)-N-(3-(1-hydroxyethyl)tetrahydrofuran-3-yl)-1-isopropyl-1H-pyrazolo[4,3-b]pyridine-6-carboxamide]	132 nM
CC1(NC(=O)c2cnc3c(-c4cccc(OC(F)F)c4)nn(C4CCOCC4F)c3c2)CS(=O)(=O)C1 (single isomer, unassigned) [Example 75a, 3-(3-(difluoromethoxy)phenyl)-1-(3-fluorotetrahydro-2H-pyran-4-yl)-N-(3-methyl-1,1-dioxidothietan-3-yl)-1H-pyrazolo[4,3-b]pyridine-6-carboxamide]	29 nM
CC1(C#N)CC(n2nc(-c3cccc(OC(F)F)c3)c3ncc(C(=O)NC4(C)CS(=O)(=O)C4)cc32)C1 (single isomer, unassigned) [Example 87a, 1-(3-cyano-3-methylcyclobutyl)-3-(3-(difluoromethoxy)phenyl)-N-(3-methyl-1,1-dioxidothietan-3-yl)-1H-pyrazolo[4,3-b]pyridine-6-carboxamide]	70 nM
CC1(NC(=O)c2cnc3c(-c4cccc(OC(F)F)c4)nn(C4CCOC(C(F)(F)F)C4)c3c2)CS(=O)(=O)C1 (single isomer, unassigned) [Example 76a, 3-(3-(difluoromethoxy)phenyl)-N-(3-methyl-1,1-dioxidothietan-3-yl)-1-(2-(trifluoromethyl)tetrahydro-2H-pyran-4-yl)-1H-pyrazolo[4,3-b]pyridine-6-carboxamide]	21 nM

Continued, values first:

IC50	SMILES
47 nM	CC(O)C(C)n1nc(-c2cccc(OC(F)F)c2)c2ncc(C(=O)NC3(C)CS(=O)(=O)C3)cc21 (single isomer, unassigned) [Example 78d, 3-(3-(difluoromethoxy)phenyl)-1-(3-hydroxybutan-2-yl)-N-(3-methyl-1,1-dioxidothietan-3-yl)-1H-pyrazolo[4,3-b]pyridine-6-carboxamide]
121 nM	CC(O)C(C)n1nc(-c2cccc(OC(F)F)c2)c2ncc(C(=O)NC3(C)CS(=O)(=O)C3)cc21 (single isomer, unassigned) [Example 78c, 3-(3-(difluoromethoxy)phenyl)-1-(3-hydroxybutan-2-yl)-N-(3-methyl-1,1-dioxidothietan-3-yl)-1H-pyrazolo[4,3-b]pyridine-6-carboxamide]
0.8 nM	C[C@]1(NC(=O)c2cnc3c(-c4cccc(OC(F)F)c4)nn(-c4ccc(F)cc4)c3c2)CCS(=O)(=O)C1 [Example 1, (S)-3-(3-(difluoromethoxy)phenyl)-1-(4-fluorophenyl)-N-(3-methyl-1,1-dioxidotetrahydrothiophen-3-yl)-1H-pyrazolo[4,3-b]pyridine-6-carboxamide]
6.8 nM	C[C@]1(NC(=O)c2cnc3c(-c4cccc(OC(F)F)c4)cn(-c4ccc(F)cc4)c3c2)CCS(=O)(=O)C1 [Example 9, (S)-3-(3-(difluoromethoxy)phenyl)-1-(4-fluorophenyl)-N-(3-methyl-1,1-dioxidotetrahydrothiophen-3-yl)-1H-pyrrolo[3,2-b]pyridine-6-carboxamide]
270 nM	CC1(C#N)CC(n2nc(-c3cccc(OC(F)F)c3)c3ncc(C(=O)NC4(C)CS(=O)(=O)C4)cc32)C1 (single isomer, unassigned) [Example 87b, 1-(3-cyano-3-methylcyclobutyl)-3-(3-(difluoromethoxy)phenyl)-N-(3-methyl-1,1-dioxidothietan-3-yl)-1H-pyrazolo[4,3-b]pyridine-6-carboxamide]
179 nM	CC(O)Cn1nc(-c2cccc(OC(F)F)c2)c2ncc(C(=O)NC3(C)CS(=O)(=O)C3)cc21 (single isomer, unassigned) [Example 68b, 3-(3-(difluoromethoxy)phenyl)-1-(2-hydroxypropyl)-N-(3-methyl-1,1-dioxidothietan-3-yl)-1H-pyrazolo[4,3-b]pyridine-6-carboxamide]
119 nM	CC(C)n1nc(-c2cccc(OC(F)F)c2)c2ncc(C(=O)NC3(C(C)O)CCOCC3)cc21 (single isomer, unassigned) [Example 73a, 3-(3-(difluoromethoxy)phenyl)-N-(4-(1-hydroxyethyl)tetrahydro-2H-pyran-4-yl)-1-isopropyl-1H-pyrazolo[4,3-b]pyridine-6-carboxamide]
189 nM	N[C@H]1CCC[C@H]1NC(=O)c1cnc2c(-c3cccc(OC(F)F)c3)cn(-c3ncc(F)cn3)c2c1 [Example 20, N-((1R,2S)-2-aminocyclopentyl)-3-(3-(difluoromethoxy)phenyl)-1-(5-fluoropyrimidin-2-yl)-1H-pyrrolo[3,2-b]pyridine-6-carboxamide]
16 nM	CC1(NC(=O)c2cnc3c(-c4cccc(OC(F)F)c4)nn([C@@H]4COC[C@H]4O)c3c2)CS(=O)(=O)C1 (single isomer, unassigned) [Example 53a, 3-(3-(difluoromethoxy)phenyl)-1-((trans)-4-hydroxytetrahydrofuran-3-yl)-N-(3-methyl-1,1-dioxidothietan-3-yl)-1H-pyrazolo[4,3-b]pyridine-6-carboxamide]

same assay, conditions: table head without 'Human'; same membrane assay; read-out: DGAT2 IC50

IC50	SMILES
2.8 nM	CC(n1nc(-c2cccc(OC(F)F)c2)c2ncc(C(=O)NC3(C)CS(=O)(=O)C3)cc21)C(C)(C)O (single isomer, unassigned) [Example 130a, 3-(3-(difluoromethoxy)phenyl)-1-(3-hydroxy-3-methylbutan-2-yl)-N-(3-methyl-1,1-dioxidothietan-3-yl)-1H-pyrazolo[4,3-b]pyridine-6-carboxamide]
215 nM	CC(n1nc(-c2cc(OC(F)(F)F)ccc2F)c2ncc(C(=O)NC3(C)CS(=O)(=O)C3)cc21)C(C)(C)O (single isomer, unassigned) [Example 132b, 3-(2-fluoro-5-(trifluoromethoxy)phenyl)-1-(3-hydroxy-3-methylbutan-2-yl)-N-(3-methyl-1,1-dioxidothietan-3-yl)-1H-pyrazolo[4,3-b]pyridine-6-carboxamide]
